Measurements reported in patent US10287616B2, “Label free biosensors, gram-negative bacteria detection, and real-time and end point determination of antibiotic effects” (priority 2015, dated 2019).
Like-named read-outs stand apart in the source and are kept apart here.

How the values were obtained:
E. coli W1485 [1] = test: Real time experiment, SWV signal after 3 hours of incubation with antibiotic; type: cell-based, Escherichia coli; details: 30 mg/L antibiotic; for SWV sensor signal: without antibiotic 0.37 μA
Protocol: Electrochemical measurements were performed on a GAMRY 4-channel electrochemical workstation. A three-electrode electrochemical cell composed of a Con A sensor as working electrode, platinum wire as counter electrode and Ag/AgCl (saturated KCl) electrode as reference electrode, was used. Square wave voltammetric measurements were performed under ambient conditions (21-23° C.). Each measurement had been repeated at least three times with independently prepared Con A sensors.
For the real time measurements, Con A sensor was mounted in a biosensor cell containing 1 mL of 10 mM HEPES buffer (pH 7.4). Real time QCM measurements were obtained for each experimental step. First, 1 μL of 5×10^8 cells/mL E. coli obtained from the stationary phase was added into the biosensor cell. When frequency reached a constant value, it was washed with 1 mL of 10 mM HEPES buffer to remove the unbound E. coli. […] The frequency changes vs time and the damping resistance vs time were recorded by QCM.
Different types of antibiotics have differing abilities to alter the LPS properties and subsequent reduction in their binding. This can be used as an indicator for the antibiotic effects for killing the bacteria or inhibiting their growth. The biosensor ability to quantitatively measure these parameters real time was tested. For that purpose, the Con A sensor was exposed to 1 μL of 5×10^8 cells/mL E. coli to capture the bacteria via Con A-LPS binding. The unbound E. coli was removed by washing with 1 mL of 10 mM HEPES buffer. […] In the three separate measurements shown in FIG. 25A, it can be clearly seen that the initial parts of the curves which are related to E. coli immobilization are almost coinciding to each other. This real time QCM measurement also allows us to observe the reproducibility of the sensor performance. In the last parts of the curves, when different antibiotics are added, their variable effects in killing the bacteria and reducing their binding caused a variable shift of the frequency. This shift was opposite in direction to what was obtained by bacterial addition which is indicative of reduced binding. These responses (shown in the inset) provided the quantitative details of this effect. […] Due to real time nature of this experiment, the frequency and damping resistance change were much smaller than that of FIGS. 24A and 24B. This confirms that the antibiotic drug effect on LPS is a slow process but the high sensitivity sensor disclosed herein allows such subtle changes to be measured. Moreover, the results of the QCM and Electrochemical measurements are validating each other again. […]

E. coli W1485 [2] = details: for ΔR (Ω) / ΔR/R0 (%) / bacterial (LPS) binding reduced to, frequency shift normalized to control: 18 hours
Protocol: The gold QCM electrode consisted of a thin AT-cut quartz crystal wafer with vapor deposited gold electrode on each side (10 MHz, non-polished with 1000 A gold, geometric area is 0.22 cm2, International Crystal Company). For all QCM test, the gold electrode was mounted on the side of a KeI-F cell chamber. Frequency monitoring was performed using a Maxtek RQCM quartz crystal microbalance research instrument. Baseline was recorded in 1 mL of 10 mM HEPES buffer containing 1 mM Ca^2+ and 1 mM Mn^2+. Each of the bacterial samples to be analyzed was then added into the detection sensor cell after stabilization of resonance frequency (shift less than 1 Hz·min-1). A small magnetic stir bar was used to increase the mass transfer through convection. The frequency changes (ΔF) of the QCM were monitored using a network/spectrum/impedance analyzer (Agilent 4395A) controlled by a PC via an Intel card.
In the end point measurement, four samples containing 2×10^5 cells/mL of E. coli obtained from log phase in fresh LB culture were prepared. […] The four samples were incubated for 18 hours, 37° C., 280 rpm on an orbital environmental shaker. Finally, 1 μL of the E. coli culture from the each prepared sample was introduced to the Con A biosensor in 1 mL of 10 mM HEPES buffer (pH 7.4) for QCM and electrochemical biosensor measurements, respectively. The sample without addition of any antibiotic was used as control.
The concentrations used were based on the literature and current clinically used dosages. The sample without any antibiotic was used as a control. As mentioned above, E. coli W1485 was used as the model Gram-negative bacterial analyte. E. coli W1485 is a “semirough” bacterial strain in which the intact LPS core is capped by a single O-antigen subunit consisting of glucose, N-acetylglucosamine, galactose, and rhamnose in the ratio 1.8:1.0:0.7:0.6, which has been confirmed by the sodium dodecyl sulfate polyacrylamide gel electrophoresis (SDS-PAGE) method. Con A binds specifically at α-D-mannosyl and α-D-glucosyl residues (two hexoses differing only by the alcohol on carbon 2) in the terminal position of ramified structures from β-glycans (reach in α-mannose, or hybrid and biantennary glycanes complexes).
Here the QCM frequency shift is because of the mass loading on the QCM surface due to bacterial adhesion and the change of damping resistance is a result of increasing softness of the interface which causes the damping of the oscillation wave.

E. coli W1485 [3] = details: for ΔF (Hz): 10 mg/L antibiotic, FIG. 27; for ΔR (Ω) / ΔR/R0 (%): 10 mg/L
Protocol: Experiments were also performed to study the concentration of the antibiotics and the length of the incubation time of antibiotics for their ability to kill or inhibit the growth of the bacteria. Different concentrations of each antibiotic were added to 5×10^8 cells/mL E. coli respectively, and then incubated at 37° C. and 280 rpm on the shaker. After 3 hours of incubation, 1 μL of antibiotic treated E. coli culture was added to the Con A sensor cell containing 1 mL of 10 mM HEPES buffer (pH 7.4) for QCM measurements, respectively. […] 1 μL of each antibiotic treated E. coli was taken at different incubation times (i.e., 0, 1, 2, 3 hours) and was added into the Con A senor cell containing 1 mL of 10 mM HEPES buffer (pH 7.4) for QCM measurements.
In most studies dealing with antibiotic-induced LPS release, bioreactive endotoxin has been measured by means of the Limulus amoebocyte lysate (LAL) assay, which involves an enzymatic reaction triggered by the core region of LPS. […] However, some antibiotics (i.e., aminoglycoside) are known to suppress the LAL reaction, which limits the application of LAL. Reproducible ELISA also can be used to detect LPS. […] A QCM is known to provide a very sensitive mass measuring device and dispense with the time- and cost-demanding labeling step and also eliminates any possible interference of the “true” binding process due to the presence of the labels.

SMILES | SWV sensor signal (E. coli W1485 [1]) [μA] | ΔF (Hz) (E. coli W1485 [3]; incubation time 0 h) | ΔF (Hz) (E. coli W1485 [3]; incubation time 1 h) | ΔF (Hz) (E. coli W1485 [3]; incubation time 2 h) | ΔF (Hz) (E. coli W1485 [3]; incubation time 3 h) | ΔR (Ω) (E. coli W1485 [3]; 0 h) | ΔR/R0 (%) (E. coli W1485 [3]; 0 h) | ΔR (Ω) (E. coli W1485 [3]; 1 h) | ΔR/R0 (%) (E. coli W1485 [3]; 1 h) | ΔR (Ω) (E. coli W1485 [3]; 2 h) | ΔR/R0 (%) (E. coli W1485 [3]; 2 h) | ΔR (Ω) (E. coli W1485 [3]; 3 h) | ΔR/R0 (%) (E. coli W1485 [3]; 3 h) | ΔR (Ω) (E. coli W1485 [2]; 0.1 mg/L antibiotic, FIG. 24A) | ΔR/R0 (%) (E. coli W1485 [2]; 0.1 mg/L antibiotic, FIG. 24A) | further results
CN(C)[C@@H]1C(O)=C(C(N)=O)C(=O)[C@@]2(O)C(O)=C3C(=O)c4c(O)cccc4[C@@](C)(O)[C@H]3C[C@@H]12 [tetracycline] | 0.65 | 378 | 329 | 279 | 244 | 16 Ω | 5.3 | 17 Ω | 5.6 | 16 Ω | 5.2 | 15.6 Ω | 5.1 |  |  | ΔR (Ω) (E. coli W1485 [2]; 10 mg/L antibiotic, FIG. 24A): 7.2 Ω; ΔR/R0 (%) (E. coli W1485 [2]; 10 mg/L antibiotic, FIG. 24A): 2.3%
O=C(O)c1cn(C2CC2)c2cc(N3CCNCC3)c(F)cc2c1=O [ciprofloxacin] | 0.89 |  |  |  |  | 15 Ω | 4.9 | 17 Ω | 5.6 | 18.6 Ω | 6.1 | 14 Ω | 4.6 | 8 Ω | 2.6 | 
CO/N=C(\C(=O)N[C@@H]1C(=O)N2C(C(=O)O)=C(CSc3nc(=O)c(=O)[nH]n3C)CS[C@H]12)c1csc(N)n1 [ceftriaxone] | 0.92 | 356 | 256 | 223 | 187 | 15 Ω | 4.9 | 15.5 Ω | 5.0 | 16.1 Ω | 5.2 | 16.6 Ω | 5.4 | 6 Ω | 2.0 | SWV sensor signal, fold of signal without antibiotic (E. coli W1485 [1]): 2.50 fold; bacterial (LPS) binding reduced to, frequency shift normalized to control (E. coli W1485 [2]; 0.1 mg/L antibiotic): 27%; bacterial (LPS) binding reduced to, frequency shift normalized to control (E. coli W1485 [2]; 0.1 mg/L antibiotic, listed as Ceftriaxone): 27%; ΔF (Hz) (E. coli W1485 [2]; log phase E. coli incubated 18 hours, 37° C. with 0.1 mg/L antibiotic, FIG. 24A): 87 Hz
